Laboratory results: patent US20030156970A1, “Sulphur-free lignin and derivatives thereof for reducing the formation of slime and deposits in industrial plants” (priority 2000, published 2003)

Tested on: slime and deposits in paper machine white water
Experiment: Slime and deposit formation in white water tanks, same test record as example 10 (example 12, lignin plus small quantity of biocide)
Set-up: species or system bacteria
Source text: The white water originated from the white water I circuit of a paper machine which produces wood-free paper with carbonate filler, used painted rejects and starch for the production of the stock and runs at a slightly alkaline pH. The white water was sampled after a re-start, before any slime combating systems were used. […] Seven tanks were filled with the white water up to the 5-litre mark, the magnetic agitators were switched on, as well as the thermostatically controlled heating systems which were set to 36° C. Weighed slime measuring boards were fully immersed in the liquid. The microbial activity in the test tanks was checked by plating out on bacterial count-Agar from the company of Merck. The additions to the slime check to be compared were diluted in a suitable way and a certain quantity was added to each test tank. After 72 hours the bacterial counts were determined again and the measuring boards covered in slime were carefully weighed. After the measurements after 72 hours the slime measur8ing boards were dried at 105° C. and again weighed in order to determine the dry weight of the stored material. The dried material was then removed from the boards and incinerated in a furnace in porcelain crucibles at 550° C. The ash was weighed back in order to measure the percentage of mineral substances in the original deposits. The whole experiment was repeated with various concentrations of the individual slime combating products.
The same test record as in example 10 was followed, however using the following products

[1] = 70 ppm active (combination 50 + 20), 72 hrs

O=[N+]([O-])C(Br)(CO)CO [bromiumnitropropane diol, 2-bromium-2-nitropropane-1,3-diol]
Ash content in deposits in % of the solids content of the control [1]: 17% | Dry weight of the deposit [1]: 1.026 g | Moist weight of the deposit [1]: 1.020 g | Solids content in deposit [1]: 12% | Solids content in deposits in % of the control (70 ppm active (combination 50 + 20), 72 hrs, control = 100): 23% | Bacterial count after 72 hrs (addition (active) 70 ppm per volume (combination 50 + 20 ppm), white water 4.7 g/l solids, start count 4.2 × 10^5): 8.1 × 10^4 CFU/ml
